Results on 15 molecules are retold here after ChEMBL document CHEMBL4118179, “Synthesis and biological evaluation of 6-hydroxyl C-aryl glucoside derivatives as novel sodium glucose co-transporter 2 (SGLT2) inhibitors” (Bioorg Med Chem Lett, 2018).

Assay [1] deals with T1, Sodium/glucose cotransporter 2 (Homo sapiens) (UniProt P31639).
T1 sequence (whole entry): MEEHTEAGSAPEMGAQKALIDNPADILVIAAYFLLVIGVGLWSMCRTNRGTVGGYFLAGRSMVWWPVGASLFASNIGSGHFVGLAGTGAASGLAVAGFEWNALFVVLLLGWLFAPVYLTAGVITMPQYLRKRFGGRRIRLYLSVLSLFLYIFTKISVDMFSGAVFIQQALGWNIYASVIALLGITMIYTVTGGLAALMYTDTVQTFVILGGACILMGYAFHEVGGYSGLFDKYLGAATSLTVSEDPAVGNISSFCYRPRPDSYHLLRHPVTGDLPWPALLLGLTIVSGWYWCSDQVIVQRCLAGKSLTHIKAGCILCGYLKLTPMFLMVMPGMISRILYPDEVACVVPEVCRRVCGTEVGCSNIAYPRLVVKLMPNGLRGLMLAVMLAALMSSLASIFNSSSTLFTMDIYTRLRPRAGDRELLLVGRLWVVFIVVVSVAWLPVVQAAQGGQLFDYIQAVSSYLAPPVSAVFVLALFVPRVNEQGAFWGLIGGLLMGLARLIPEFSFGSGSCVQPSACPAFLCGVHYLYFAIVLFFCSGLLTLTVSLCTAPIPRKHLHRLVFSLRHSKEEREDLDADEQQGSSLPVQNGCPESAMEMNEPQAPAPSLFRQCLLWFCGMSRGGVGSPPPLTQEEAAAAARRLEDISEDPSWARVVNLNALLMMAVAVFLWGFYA
Briefly: Inhibition of full-length human SGLT2 expressed in CHO cells assessed as decrease in [14C]-methyl alpha-D-glucopyranoside uptake at 0.5 uM after 1 hr by liquid scintillation counting method. It counts as cell-based.

Assay [2] addresses T2, Sodium/glucose cotransporter 2 (Homo sapiens, UniProt P31639).
T2 sequence (P31639 whole entry): T1 sequence (whole entry)
Briefly: Inhibition of full-length human SGLT2 expressed in CHO cells assessed as decrease in [14C]-methyl alpha-D-glucopyranoside uptake after 1 hr by liquid scintillation counting method. It counts as cell-based.

Broadly, the inhibition is the change of the read-out against control, counted positive when it falls. `CCOc1ccc(Cc2cc3c(cc2Cl)O[C@H]2[C@@H](O)[C@H](O)[C@@H](CO)O[C@@H]32)cc1`: in assay [1], the inhibition came out at 8.6%.

Consider `COc1ccc(Cc2cc3c(cc2Cl)O[C@H]2[C@@H](O)[C@H](O)[C@@H](CO)O[C@@H]32)cc1`, for which, in assay [1], the inhibition was found to be 30.7%.

The term IC50 denotes the concentration at which inhibition is half-maximal. As to `CCc1ccc(Cc2cc([C@@H]3O[C@H](CO)[C@@H](O)[C@H](O)[C@H]3O)c(O)cc2Cl)cc1`, in assay [2], the IC50 worked out at 0.63 nM. Also, in assay [1], the inhibition turned out to be 100%.

Regarding `CCOc1ccc(Cc2cc([C@@H]3O[C@H](CO)[C@@H](O)[C@H](O)[C@H]3O)ccc2Cl)cc1`, in assay [1], the inhibition worked out at 103%.

`Cc1ccc(Cc2cc3c(cc2Cl)O[C@H]2[C@@H](O)[C@H](O)[C@@H](CO)O[C@@H]32)cc1`: the inhibition in assay [1] is 4.2%.

Regarding `CCOc1ccc(Cc2ccc3c(c2)[C@@H]2O[C@H](CO)[C@@H](O)[C@H](O)[C@@H]2O3)cc1`, the inhibition in assay [1] was found to be 66.5%.

With `CCOc1ccc(Cc2ccc(O)c([C@@H]3O[C@H](CO)[C@@H](O)[C@H](O)[C@H]3O)c2)cc1`, the IC50 in assay [2] was determined as 12.2 nM. For the same molecule, in assay [1], the inhibition was 104%.

Regarding `OC[C@H]1O[C@H]2c3cc(Cc4cc5ccccc5s4)c(Cl)cc3O[C@H]2[C@@H](O)[C@@H]1O`, the inhibition in assay [1] was 48.7%.

On to `CCc1ccc(Cc2cc3c(cc2Cl)O[C@H]2[C@@H](O)[C@H](O)[C@@H](CO)O[C@@H]32)cc1`, for which the inhibition in assay [1] was found to be 19.3%.

Regarding `OC[C@H]1O[C@@H](c2cc(Cc3cc4ccccc4s3)c(Cl)cc2O)[C@H](O)[C@@H](O)[C@@H]1O`, the inhibition in assay [1] came out at 97.5%.

`OC[C@H]1O[C@@H](c2cc(Cc3cc4ccccc4s3)ccc2O)[C@H](O)[C@@H](O)[C@@H]1O`: the inhibition in assay [1] was 103%.

As for `CCOc1ccc(Cc2cc([C@@H]3O[C@H](CO)[C@@H](O)[C@H](O)[C@H]3O)c(O)cc2Cl)cc1`, the IC50 in assay [2] stood at 1.03 nM. Moreover, the inhibition in assay [1] was determined as 89.7%.

In the case of `Cc1ccc(Cc2cc([C@@H]3O[C@H](CO)[C@@H](O)[C@H](O)[C@H]3O)c(O)cc2Cl)cc1`, in assay [2], the IC50 turned out to be 0.81 nM. The inhibition in assay [1] turned out to be 101%.

On to `COc1ccc(Cc2cc([C@@H]3O[C@H](CO)[C@@H](O)[C@H](O)[C@H]3O)c(O)cc2Cl)cc1`, for which the IC50 in assay [2] was 1.08 nM. Further, in assay [1], the inhibition was 106%.

Take `OC[C@H]1O[C@H]2c3cc(Cc4cc5ccccc5s4)ccc3O[C@H]2[C@@H](O)[C@@H]1O`: in assay [1], the inhibition amounted to 1.8%.
